In the supplement of paper PMC10307832:

Experiments:
Test in all cases: relative viability (nuclei count vs DMSO), 5 days (fraction); higher = more cells survive
DM3189 = compound: C1CN(CCN1)C2=CC=C(C=C2)C3=CN4C(=C(C=N4)C5=CC=NC6=CC=CC=C56)N=C3 [DM3189]
Procedure, shortened: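 Vehicle-anchored 1536-well plates of lung cancer cell lines, held overnight at 37 °C, were pinned with five library-drug doses (not always all listed) spaced by √10. No medium change followed over the next 5 days, after which the cells were fixed, permeabilised and Hoechst-stained together and imaged at 4×. Nuclei were counted with MetaXpress, and viability is treated-well nuclei over vehicle-well nuclei, taken as a median across plates. Plates passed with control CV below 25% and at least one doubling.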

DM3189 + Bortezomib = compound: C1CN(CCN1)C2=CC=C(C=C2)C3=CN4C(=C(C=N4)C5=CC=NC6=CC=CC=C56)N=C3 [DM3189] + CC(C)C[C@H](NC(=O)[C@H](Cc1ccccc1)NC(=O)c1cnccn1)B(O)O [Bortezomib] (partner 0.002 µM)
Procedure, shortened: (§1)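 Nuclei were stained with Hoechst during a one-step fixation (final 0.05% Triton X-100, 1% formaldehyde, 1 ug/ml Hoechst) carried out 5 days after dosing, then counted on 4× images. The cells, lung cancer lines in 1536-well plates, had been dosed by pin tool the day after seeding with one drug alone or a fixed anchor-drug dose plus five library-drug doses (not always all listed) in √10 steps. Relative viability is the nuclei count in treated wells divided by that in vehicle wells, and each value is the median of duplicate plates.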

DM3189 + Navitoclax = compound: C1CN(CCN1)C2=CC=C(C=C2)C3=CN4C(=C(C=N4)C5=CC=NC6=CC=CC=C56)N=C3 [DM3189] + CC1(C)CCC(c2ccc(Cl)cc2)=C(CN2CCN(c3ccc(C(=O)NS(=O)(=O)c4ccc(N[C@H](CCN5CCOCC5)CSc5ccccc5)c(S(=O)(=O)C(F)(F)F)c4)cc3)CC2)C1 [Navitoclax] (partner 0.5 µM)
Procedure, shortened: as §1

DM3189 + Foretinib = compound: C1CN(CCN1)C2=CC=C(C=C2)C3=CN4C(=C(C=N4)C5=CC=NC6=CC=CC=C56)N=C3 [DM3189] + COc1cc2c(Oc3ccc(NC(=O)C4(C(=O)Nc5ccc(F)cc5)CC4)cc3F)ccnc2cc1OCCCN1CCOCC1 [Foretinib] (partner 0.25 µM)
Procedure, shortened: as §1

DM3189 + Lapatinib = compound: C1CN(CCN1)C2=CC=C(C=C2)C3=CN4C(=C(C=N4)C5=CC=NC6=CC=CC=C56)N=C3 [DM3189] + CS(=O)(=O)CCNCc1ccc(-c2ccc3ncnc(Nc4ccc(OCc5cccc(F)c5)c(Cl)c4)c3c2)o1 [Lapatinib] (partner 2 µM)
Procedure, shortened: as §1

DM3189 + Pictilisib = compound: C1CN(CCN1)C2=CC=C(C=C2)C3=CN4C(=C(C=N4)C5=CC=NC6=CC=CC=C56)N=C3 [DM3189] + CS(=O)(=O)N1CCN(Cc2cc3nc(-c4cccc5[nH]ncc45)nc(N4CCOCC4)c3s2)CC1 [Pictilisib] (partner 1 µM)
Procedure, shortened: as §1

DM3189 + Crizotinib = compound: C1CN(CCN1)C2=CC=C(C=C2)C3=CN4C(=C(C=N4)C5=CC=NC6=CC=CC=C56)N=C3 [DM3189] + C[C@@H](Oc1cc(-c2cnn(C3CCNCC3)c2)cnc1N)c1c(Cl)ccc(F)c1Cl [Crizotinib] (partner 1 µM)
Procedure, shortened: as §1

DM3189 + Linsitinib = compound: C1CN(CCN1)C2=CC=C(C=C2)C3=CN4C(=C(C=N4)C5=CC=NC6=CC=CC=C56)N=C3 [DM3189] + C[C@]1(O)C[C@@H](c2nc(-c3ccc4ccc(-c5ccccc5)nc4c3)c3c(N)nccn32)C1 [Linsitinib] (partner 1 µM)
Procedure, shortened: as §1

DM3189 + Alpelisib = compound: C1CN(CCN1)C2=CC=C(C=C2)C3=CN4C(=C(C=N4)C5=CC=NC6=CC=CC=C56)N=C3 [DM3189] + Cc1nc(NC(=O)N2CCC[C@H]2C(N)=O)sc1-c1ccnc(C(C)(C)C(F)(F)F)c1 [Alpelisib] (partner 2 µM)
Procedure, shortened: as §1

DM3189 + Olaparib = compound: C1CN(CCN1)C2=CC=C(C=C2)C3=CN4C(=C(C=N4)C5=CC=NC6=CC=CC=C56)N=C3 [DM3189] + O=C(c1cc(Cc2n[nH]c(=O)c3ccccc23)ccc1F)N1CCN(C(=O)C2CC2)CC1 [Olaparib] (partner 8 µM)
Procedure, shortened: as §1

Row | Cell Line | relative viability (DM3189; 0.08 µM) | relative viability (DM3189; 0.253 µM) | relative viability (DM3189; 0.8 µM) | relative viability (DM3189; 2.53 µM) | relative viability (DM3189 + Bortezomib; first compound 0.08 µM) | relative viability (DM3189 + Bortezomib; first compound 0.253 µM) | relative viability (DM3189 + Bortezomib; first compound 0.8 µM) | relative viability (DM3189 + Bortezomib; first compound 2.53 µM) | relative viability (DM3189 + Navitoclax; first compound 0.08 µM) | relative viability (DM3189 + Navitoclax; first compound 0.253 µM) | relative viability (DM3189 + Navitoclax; first compound 0.8 µM) | relative viability (DM3189 + Navitoclax; first compound 2.53 µM) | relative viability (DM3189 + Foretinib; first compound 0.08 µM) | relative viability (DM3189 + Foretinib; first compound 0.253 µM) | relative viability (DM3189 + Foretinib; first compound 0.8 µM) | relative viability (DM3189 + Foretinib; first compound 2.53 µM) | relative viability (DM3189 + Lapatinib; first compound 0.08 µM) | relative viability (DM3189 + Lapatinib; first compound 0.253 µM) | relative viability (DM3189 + Lapatinib; first compound 0.8 µM) | relative viability (DM3189 + Lapatinib; first compound 2.53 µM) | relative viability (DM3189 + Pictilisib; first compound 0.08 µM) | relative viability (DM3189 + Pictilisib; first compound 0.253 µM) | relative viability (DM3189 + Pictilisib; first compound 0.8 µM) | relative viability (DM3189 + Pictilisib; first compound 2.53 µM) | relative viability (DM3189 + Crizotinib; first compound 0.08 µM) | relative viability (DM3189 + Crizotinib; first compound 0.253 µM) | relative viability (DM3189 + Crizotinib; first compound 0.8 µM) | relative viability (DM3189 + Crizotinib; first compound 2.53 µM) | relative viability (DM3189 + Linsitinib; first compound 0.08 µM) | relative viability (DM3189 + Linsitinib; first compound 0.253 µM) | relative viability (DM3189 + Linsitinib; first compound 0.8 µM) | relative viability (DM3189 + Linsitinib; first compound 2.53 µM) | relative viability (DM3189 + Alpelisib; first compound 0.08 µM) | relative viability (DM3189 + Alpelisib; first compound 0.253 µM) | relative viability (DM3189 + Alpelisib; first compound 0.8 µM) | relative viability (DM3189 + Alpelisib; first compound 2.53 µM) | relative viability (DM3189 + Olaparib; first compound 0.08 µM) | relative viability (DM3189 + Olaparib; first compound 0.253 µM) | relative viability (DM3189 + Olaparib; first compound 0.8 µM) | relative viability (DM3189 + Olaparib; first compound 2.53 µM)
1 | Calu-6 | 1.03 | 0.966 | 0.812 | 1.03 | 0.997 | 0.941 | 0.816 | 0.784 | 0.819 | 0.678 | 0.705 | 0.486 | 0.901 | 0.768 | 0.715 | 0.765 | 0.998 | 0.905 | 0.822 | 0.885 | 0.876 | 0.658 | 0.657 | 0.692 | 0.895 | 0.788 | 0.732 | 0.544 | 0.975 | 0.958 | 0.703 | 0.763 | 1.06 | 0.855 | 0.702 | 0.77 | 0.625 | 0.529 | 0.45 | 0.608
2 | EBC-1 | 0.974 | 0.989 | 0.963 | 1.07 | 0.63 | 0.611 | 0.483 | 0.551 | 0.48 | 0.356 | 0.478 | 0.391 | 0.11 | 0.106 | 0.0886 | 0.0977 | 0.228 | 0.214 | 0.214 | 0.2 | 0.419 | 0.435 | 0.344 | 0.285 | 0.196 | 0.183 | 0.164 | 0.179 | 0.993 | 0.965 | 0.869 | 1.06 | 0.864 | 0.759 | 0.817 | 0.985 | 0.858 | 0.778 | 0.71 | 0.673
